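Interpolation was linear, between the two tested concentrations surrounding the appropriate level; five concentrations were tested over 48 hours in 96-well plates. GI50 is the concentration that inhibits growth by half. Definition used: TGI = concentration required for complete inhibition of growth.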
Key:
Assay in all cases: DTP human tumour cell line panel, 48 h
HOP-92 NSCLC = tested on: HOP-92 NSCLC
NCI-H23 lung = tested on: NCI-H23 lung
OVCAR-5 ovarian = tested on: OVCAR-5 ovarian
OVCAR-8 ovarian = tested on: OVCAR-8 ovarian
SK-MEL-28 melanoma = tested on: SK-MEL-28 melanoma
SN12C renal = tested on: SN12C renal
SW-620 colon = tested on: SW-620 colon
U251 CNS = tested on: U251 CNS
UO-31 renal = tested on: UO-31 renal
XF 498 CNS = tested on: XF 498 CNS

With CCO[C@@H]1C2C=CC(C2)[C@H]1[N+](=O)[O-] (stereo partly drawn) the TGI (HOP-92 NSCLC) was > 100 µM, the TGI (NCI-H23 lung) was > 100 µM and the TGI (OVCAR-5 ovarian) was > 100 µM. The TGI (OVCAR-8 ovarian) was > 100 µM, the TGI (SK-MEL-28 melanoma) was > 100 µM and the TGI (SN12C renal) was > 100 µM. For the same compound, the TGI (SW-620 colon) was > 100 µM, the TGI (U251 CNS) was > 100 µM and the TGI (UO-31 renal) was > 100 µM. The TGI (XF 498 CNS) was > 100 µM.
In the case of CC(=O)NC(CCCN(Cc1ccccc1)C(=O)N(CCCl)N=O)C(=O)NCc1ccccc1 (stereo not drawn), the TGI (HOP-92 NSCLC) is reported as > 91.8 µM, the TGI (NCI-H23 lung) is reported as > 75.1 µM and the TGI (OVCAR-5 ovarian) is reported as > 100 µM. The TGI (OVCAR-8 ovarian) was > 100 µM, the TGI (SK-MEL-28 melanoma) was > 100 µM and the TGI (SN12C renal) was > 100 µM. The TGI (SW-620 colon) was > 100 µM, the TGI (U251 CNS) was > 100 µM and the TGI (UO-31 renal) was > 100 µM. For the same compound, the TGI (XF 498 CNS) was > 60.4 µM.
For O=C(Cc1ccccc1)N/N=C(\C1=Nc2ccc([N+](=O)[O-])cc2NC1O)C(O)c1ccc([N+](=O)[O-])cc1 (stereo not drawn), the TGI (HOP-92 NSCLC) was > 100 µM, the TGI (NCI-H23 lung) was > 100 µM and the TGI (OVCAR-5 ovarian) was > 100 µM. The TGI (OVCAR-8 ovarian) was > 100 µM, the TGI (SN12C renal) was > 100 µM and the TGI (SW-620 colon) was > 100 µM. For the same compound, the TGI (U251 CNS) was > 100 µM, the TGI (UO-31 renal) was > 100 µM and the TGI (XF 498 CNS) was > 100 µM.
CN(C)c1ccc(N=Nc2c([O-])ccc3ccccc23)cc1.[C-]#[O+].[C-]#[O+].[Ir] showed a GI50 (HOP-92 NSCLC) of 2.72 µM, a TGI (HOP-92 NSCLC) of 8.64 µM and a GI50 (NCI-H23 lung) of 19.4 µM. The TGI (NCI-H23 lung) was 54.9 µM, the GI50 (OVCAR-5 ovarian) was > 42.1 µM and the TGI (OVCAR-5 ovarian) was > 58.7 µM. It also gave a GI50 (OVCAR-8 ovarian) of 25 µM, a TGI (OVCAR-8 ovarian) of 65.4 µM and a GI50 (SK-MEL-28 melanoma) of 26.3 µM. For the same compound, the TGI (SK-MEL-28 melanoma) was 65.4 µM, the GI50 (SN12C renal) was 17 µM and the TGI (SN12C renal) was 34.5 µM. For the same compound, the GI50 (SW-620 colon) was 1.48 µM, the TGI (SW-620 colon) was 25.7 µM and the GI50 (U251 CNS) was 35.1 µM. For the same compound, the TGI (U251 CNS) was > 69.3 µM, the GI50 (UO-31 renal) was 26.7 µM and the TGI (UO-31 renal) was > 53.2 µM. It also gave a GI50 (XF 498 CNS) of 17 µM and a TGI (XF 498 CNS) of 33.3 µM.
CCOc1ccc(NC(=O)CC2SC(N)=NC2=O)cc1 (stereo not drawn) was tested, and the TGI (HOP-92 NSCLC) was > 100 µM, the TGI (NCI-H23 lung) was > 100 µM and the TGI (OVCAR-5 ovarian) was > 100 µM. The TGI (OVCAR-8 ovarian) was > 100 µM, the TGI (SK-MEL-28 melanoma) was > 100 µM and the TGI (SN12C renal) was > 100 µM. For the same compound, the TGI (SW-620 colon) was > 100 µM, the TGI (U251 CNS) was > 100 µM and the TGI (UO-31 renal) was > 100 µM. For the same compound, the TGI (XF 498 CNS) was > 100 µM.
For COc1cc(Oc2c(O)c(C)c(OC)c(C(C)=O)c2O)c(C(C)=O)c(O)c1C, the TGI (HOP-92 NSCLC) was > 100 µM, the TGI (NCI-H23 lung) was 94.9 µM and the TGI (OVCAR-5 ovarian) was > 100 µM. The TGI (OVCAR-8 ovarian) was > 100 µM, the TGI (SK-MEL-28 melanoma) was > 100 µM and the TGI (SN12C renal) was > 100 µM. The TGI (SW-620 colon) was > 100 µM, the TGI (U251 CNS) was > 100 µM and the TGI (UO-31 renal) was > 100 µM. For the same compound, the TGI (XF 498 CNS) was > 100 µM.
With COc1ccc2cc3n(c2c1)CCc1cc(OC)c(OC)cc1-3 the TGI (HOP-92 NSCLC) was > 100 µM, the TGI (NCI-H23 lung) was > 100 µM and the TGI (OVCAR-8 ovarian) was > 100 µM. For the same compound, the TGI (SK-MEL-28 melanoma) was > 100 µM, the TGI (SN12C renal) was > 100 µM and the TGI (SW-620 colon) was > 100 µM. For the same compound, the TGI (U251 CNS) was > 100 µM, the TGI (UO-31 renal) was > 100 µM and the TGI (XF 498 CNS) was > 100 µM.
In the case of COC(=O)C(=O)C(C(=O)C=C(C)C)C(=O)C(=O)Nc1cccc(C(C)=O)c1 (stereo not drawn), the TGI (NCI-H23 lung) is reported as > 100 µM, the TGI (OVCAR-5 ovarian) is reported as > 100 µM and the TGI (OVCAR-8 ovarian) is reported as > 100 µM. For the same compound, the TGI (SK-MEL-28 melanoma) was > 100 µM, the TGI (SN12C renal) was > 100 µM and the TGI (SW-620 colon) was > 100 µM. For the same compound, the TGI (U251 CNS) was > 100 µM, the TGI (UO-31 renal) was > 100 µM and the TGI (XF 498 CNS) was > 100 µM.
With O=C1C(=O)N(C2C3CC4CC(C3)CC2C4)C(=O)C(=O)C1c1nc2ccccc2o1 (stereo not drawn) the TGI (HOP-92 NSCLC) was > 100 µM, the TGI (NCI-H23 lung) was > 100 µM and the TGI (OVCAR-5 ovarian) was > 100 µM. For the same compound, the TGI (OVCAR-8 ovarian) was > 100 µM, the TGI (SK-MEL-28 melanoma) was > 100 µM and the TGI (SN12C renal) was > 100 µM. The TGI (SW-620 colon) was > 100 µM, the TGI (U251 CNS) was > 100 µM and the TGI (UO-31 renal) was > 100 µM. For the same compound, the TGI (XF 498 CNS) was > 100 µM.
For FC(F)(F)C12C34C=CC5(CCC6(C=CC1(CC3)O6)C52C(F)(F)F)O4 (stereo not drawn), the TGI (HOP-92 NSCLC) was > 100 µM, the TGI (NCI-H23 lung) was > 100 µM and the TGI (OVCAR-5 ovarian) was > 100 µM. The TGI (OVCAR-8 ovarian) was > 100 µM, the TGI (SK-MEL-28 melanoma) was > 100 µM and the TGI (SN12C renal) was > 100 µM. The TGI (SW-620 colon) was > 100 µM, the TGI (U251 CNS) was > 100 µM and the TGI (XF 498 CNS) was > 100 µM.
With CC(C)[C@@H](COC(C)(C)C)N=CN1CCc2c([nH]c3ccccc23)C1 the TGI (HOP-92 NSCLC) was 89.6 µM, the TGI (NCI-H23 lung) was > 100 µM and the TGI (OVCAR-5 ovarian) was > 100 µM. For the same compound, the TGI (OVCAR-8 ovarian) was > 100 µM, the TGI (SK-MEL-28 melanoma) was > 100 µM and the TGI (SN12C renal) was > 100 µM. For the same compound, the TGI (SW-620 colon) was > 100 µM, the TGI (U251 CNS) was > 100 µM and the TGI (UO-31 renal) was > 100 µM. For the same compound, the TGI (XF 498 CNS) was > 100 µM.
With O=C1c2ccccc2C(=O)C1C(c1ccc([N+](=O)[O-])cc1)C1C(=O)c2ccccc2C1=O the TGI (HOP-92 NSCLC) was > 100 µM, the TGI (NCI-H23 lung) was > 100 µM and the TGI (OVCAR-5 ovarian) was > 100 µM. The TGI (OVCAR-8 ovarian) was 72.8 µM, the TGI (SK-MEL-28 melanoma) was 93.6 µM and the TGI (SN12C renal) was > 100 µM. The TGI (SW-620 colon) was 32.3 µM, the TGI (U251 CNS) was > 100 µM and the TGI (UO-31 renal) was > 100 µM. For the same compound, the TGI (XF 498 CNS) was > 100 µM.
In the case of N/N=C(\Cc1ccccc1)NN=C(N)N, the TGI (HOP-92 NSCLC) is reported as > 100 µM, the TGI (NCI-H23 lung) is reported as > 100 µM and the TGI (OVCAR-5 ovarian) is reported as > 100 µM. For the same compound, the TGI (OVCAR-8 ovarian) was > 100 µM, the TGI (SK-MEL-28 melanoma) was > 100 µM and the TGI (SN12C renal) was > 100 µM. The TGI (SW-620 colon) was > 100 µM, the TGI (U251 CNS) was > 100 µM and the TGI (UO-31 renal) was > 100 µM. For the same compound, the TGI (XF 498 CNS) was > 100 µM.
For COC(=O)C(Cc1nc2ccc(Cl)cc2[nH]c1=O)C(=O)C(=O)Nc1ccccc1[N+](=O)[O-] (stereo not drawn), the TGI (NCI-H23 lung) was > 100 µM, the TGI (OVCAR-5 ovarian) was > 100 µM and the TGI (OVCAR-8 ovarian) was > 100 µM. The TGI (SK-MEL-28 melanoma) was > 100 µM, the TGI (SN12C renal) was > 100 µM and the TGI (SW-620 colon) was > 100 µM. For the same compound, the TGI (U251 CNS) was > 100 µM, the TGI (UO-31 renal) was > 100 µM and the TGI (XF 498 CNS) was > 100 µM.
With O=C1CCC2(c3ccccc3)Nc3cc(Cl)ccc3N12 (stereo not drawn) the TGI (HOP-92 NSCLC) was 40.7 µM, the TGI (NCI-H23 lung) was 60.7 µM and the TGI (OVCAR-5 ovarian) was > 100 µM. The TGI (OVCAR-8 ovarian) was > 100 µM, the TGI (SK-MEL-28 melanoma) was > 100 µM and the TGI (SN12C renal) was > 100 µM. The TGI (SW-620 colon) was > 100 µM, the TGI (U251 CNS) was > 100 µM and the TGI (UO-31 renal) was 63.3 µM. For the same compound, the TGI (XF 498 CNS) was 56.6 µM.
Work on CCCCCCCCCCCCC(=O)[O-].CCCCCCCCCCCCC(=O)[O-].CCCCCCCCCCCCC(=O)[O-].CCCCCCCCCCCCC(=O)[O-].[Mo+2].[Mo+2] yielded a GI50 (HOP-92 NSCLC) of 3.56 µM, a TGI (HOP-92 NSCLC) of 9.35 µM and a GI50 (NCI-H23 lung) of 17.9 µM. The TGI (NCI-H23 lung) was 40.6 µM, the GI50 (OVCAR-5 ovarian) was 23.6 µM and the TGI (OVCAR-5 ovarian) was 67 µM. For the same compound, the GI50 (OVCAR-8 ovarian) was 11.9 µM, the TGI (OVCAR-8 ovarian) was 31.3 µM and the GI50 (SK-MEL-28 melanoma) was 21.4 µM. It also gave a TGI (SK-MEL-28 melanoma) of 65.7 µM, a GI50 (SW-620 colon) of 15.1 µM and a TGI (SW-620 colon) of 29 µM. It also gave a GI50 (U251 CNS) of 10.7 µM, a TGI (U251 CNS) of 22.6 µM and a GI50 (UO-31 renal) of 14.7 µM. For the same compound, the TGI (UO-31 renal) was 41.9 µM, the GI50 (XF 498 CNS) was 11.3 µM and the TGI (XF 498 CNS) was 23.4 µM.
